Test results published in patent publication US9718770B2, “Substituted thioureas as heat shock protein 70 inhibitors” (Institute of Pharmacology and Toxicology Academy of …, priority 2013, dated 2017).

Experiments:
MDA-MB-453 = test: CDI of example compounds and Lapatinib (ATPlite cell survival); format: cell-based; design: key: CDI = AB/(A×B); <1 synergistic; settings: compound 5 μM + Lapatinib 1 μM, 72 h; natural Lapatinib-resistant human breast cancer cells; CDI<1 synergistic
Description: (§1) Cells: (BT474 and SK-BR3 are Lapatinib-sensitive human breast cancer cell strains; BT/LapR and SK/LapR are secondary Lapatinib-resistant human breast cancer cell strains upon Lapatinib stimulation; MDA-MB-361 and MDA-MB-453 are natural Lapatinib-resistant human breast cancer cell strains. BT474, MDA-MB-361, SK-BR3 and MDA-MB-453 are from American Type Culture Collection (ATCC))
(§2) In a 100 mm culture dish full of adherent cells, digestion with 1 ml 0.25% pancreatin (GIBCO) was carried out at 37° C. for 5 min, and the reaction was stopped with 2 ml medium (containing 10% FBS, GIBCO). The cells were dispersed and collected. After cell count, the cells were diluted to a concentration of 1×10^5 cells/ml, and were seeded to a 96-well plate at 50 μl/well, 5000 cell/well, 60 wells in total, PBS instead of cells was added to the wells of the outmost circle, and the incubation was carried out at 37° C. for 24 h for adherence.
(§3) For the sample group, samples to be tested were diluted with DMSO to a final concentration of 5 μM; to control wells, the medium containing the same concentration of solvent corresponding to the compound was added, the concentrations of the compounds were identical in each well, 5 wells in parallel were set for each concentration, 25 μL/well, and 25 μL medium was added to each well (for the combination group, 25 μL Lapatinib was added to reach a final concentration of 1 μM). The incubation was carried out at 37° C. for 72 h.
(§4) To each well, 50 μL ATPlite kit substrate solution was added. The plate was under shaking for 3 min, and was then placed in dark for 10 min. The lysis supernatant was drawn at 100 μL/well, and placed in a luminescent plate. The incubated luminescent plate was placed in an iluminescence apparatus, and the iluminescent value was read.
(§5) Data Processing Cell survival rate (%)=Experimental group RLU/control group RLU×100%
(§6) Coefficient of drug interaction (CDI) is used to evaluate the interaction of two drugs, CDI is calculated in accordance with the following formula: CDI=AB/(A×B)×100%. The calculation is performed according to the number of live cells (luminescent value), if CDI<1, the two drugs have a synergistic effect; if CDI<0.7, the synergistic effect is very significant; if CDI=1, the effect of the two drugs in combination is the sum of the effects of the two drugs; if CDI>1, the two drugs have an antagonistic effect.

MDA-MB-361 = test: as above; format: cell-based; design: key: CDI = AB/(A×B); <1 synergistic; settings: compound 5 μM + Lapatinib 1 μM, 72 h; natural Lapatinib-resistant human breast cancer cells; CDI<1 synergistic
Description: as §1, §2, §3, §4, §5, §6

SK-BR3 = test: as above; format: cell-based; design: key: CDI = AB/(A×B); <1 synergistic; settings: compound 5 μM + Lapatinib 1 μM, 72 h; Lapatinib-sensitive human breast cancer cells; CDI<1 synergistic
Description: as §1, §2, §3, §4, §5, §6

BT474 = test: as above; format: cell-based; design: key: CDI = AB/(A×B); <1 synergistic; settings: compound 5 μM + Lapatinib 1 μM, 72 h; Lapatinib-sensitive human breast cancer cells; CDI<1 synergistic, <0.7 very significant, >1 antagonistic
Description: as §1, §2, §3, §4, §5, §6

Hsp70 ATPase = biological target: T1, Hsp70 ATPase (Homo sapiens, UniProt P0DMV8); test: Inhibition of Hsp70 ATPase activity (malachite green); format: biochemical; settings: 200 μM; repeated screening carried out twice; Hsp70/Hsp40, 1 mM ATP; read-out: Inhibitory rate (%) on activity of Hsp70 ATPase
T1 construct: made in house; host or cells: E. coli
Description: (1) Protein: Humanized Hsp70, Hsp40, expressed by E. coli.
(2) Sample to be tested: 26 compound solids with different colors and states. Positive drugs AZ (CAS:1054543-47-3) and VER 155008 (CAS: 1134156-31-2) were synthesized in the laboratory.
(4) ATPase Assay buffer: • 0.017% Triton X-100; • 100 mM Tris-HCl; • 20 mM KCl; • 6 mM MgCl2, pH 7.4.
1) 13.08 μl DnaK (0.15 mg/mL, 2.14 μM), 1.96 μl DnaJ (1 mg/mL, 25 μM) were dissolved in 7.96 μl Assay Buffer (0.017% Triton X-100, 100 mM Tris-HCl, 20 mM KCl, and 6 mM MgCl2, pH 7.4), and the resultant solution was added to each well of the 96 well plate;
2) to each well of the 96 well plate, 1 μL sample to be tested (5 mM) or DMSO (solvent) was added, and vortexed with a Vortex agitator for 10 min; and then standing at 37° C. for 30 min;
3) to each well, 1 μL 25 mM ATP was added, to trigger the enzymatic reaction; (in each well, the final reaction volume was 25 μL, the final concentration of DnaK was 1.12 μM, the final concentration of DnaJ was 1.96 μM, the final concentration of DMSO was 4%, the final concentration of Triton X-100 was 0.01%, the final concentration of ATP was 1 mM, and the final concentration of sample to be tested was 200 μM), the enzymatic reaction was carried out at 37° C. for 3 h;
4) 80 μL Malachite green staining solution was then added to each well, and was vortexed gently;
5) 10 μL of 34% citrate sodium was then added immediately, and vortexed gently, to stop the ATP hydrolysis not caused by ATPase;
6) the resultant mixture was mixed thoroughly at 37° C. for 15 min, and OD620 was measured.
The inhibitory rate of Hsp70 ATPase activity is calculated in accordance with the following formula: Inhibitory rate (%)=(DMSO well OD−Experimental well OD)/(DMSO well OD−Blank well OD)×100
Criteria for preliminary screening: during preliminary screening, an example compound is regarded as effective in inhibition as long as its inhibitory rate is above 20% for Hsp70 ATPase at 200 μM.

SK/Lap^R1.0 = test: CDI of example compounds and Lapatinib (ATPlite cell survival); format: cell-based; settings: compound 5 μM + Lapatinib 1 μM, 72 h; secondary Lapatinib-resistant human breast cancer cells; CDI<1 synergistic
Description: as §1, §2, §3, §4, §5, §6

BT/Lap^R1.0 = test: as above; format: cell-based; settings: compound 5 μM + Lapatinib 1 μM, 72 h; secondary Lapatinib-resistant human breast cancer cells; CDI<1 synergistic
Description: as §1, §2, §3, §4, §5, §6

T1 sequence (P0DMV8 2-641 limits assumed): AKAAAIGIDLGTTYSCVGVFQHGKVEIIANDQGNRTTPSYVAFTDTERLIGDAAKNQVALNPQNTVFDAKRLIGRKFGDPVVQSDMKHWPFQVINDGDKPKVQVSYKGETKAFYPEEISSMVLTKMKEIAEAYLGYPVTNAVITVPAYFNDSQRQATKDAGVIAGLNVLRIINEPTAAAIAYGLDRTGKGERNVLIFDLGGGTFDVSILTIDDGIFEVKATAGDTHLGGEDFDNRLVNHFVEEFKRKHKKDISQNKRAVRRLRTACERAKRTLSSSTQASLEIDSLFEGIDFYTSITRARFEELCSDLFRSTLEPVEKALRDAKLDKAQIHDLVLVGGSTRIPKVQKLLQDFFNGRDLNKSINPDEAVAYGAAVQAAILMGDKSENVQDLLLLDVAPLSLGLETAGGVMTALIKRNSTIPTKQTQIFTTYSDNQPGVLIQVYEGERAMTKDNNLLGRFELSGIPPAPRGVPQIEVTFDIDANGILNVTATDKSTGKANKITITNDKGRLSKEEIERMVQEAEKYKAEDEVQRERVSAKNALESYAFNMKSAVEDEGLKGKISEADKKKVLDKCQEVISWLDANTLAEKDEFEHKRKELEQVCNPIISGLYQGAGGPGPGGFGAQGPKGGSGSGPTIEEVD

SMILES | CDI of example compounds and Lapatinib, MDA-MB-453 (MDA-MB-453) | CDI of example compounds and Lapatinib, MDA-MB-361 (MDA-MB-361) | CDI of example compounds and Lapatinib, SK-BR3 (SK-BR3) | CDI of example compounds and Lapatinib, BT474 (BT474) | inhibition at 200 µM (Hsp70 ATPase) [%] | CDI of example compounds and Lapatinib, SK/Lap^R1.0 (SK/Lap^R1.0) | CDI of example compounds and Lapatinib, BT/Lap^R1.0 (BT/Lap^R1.0)
CC(C)C(NC(=O)/C=C/c1ccccc1)NC(=S)Nc1ccccc1 (stereo not shown) [Example 42, (2E)-N-[2-methyl-1-(3-phenylthioureido)propyl] cinnamamide] | 1.15 | 0.96 | 1.14 | 0.92 | -4.2 | 0.99 | 0.99
CNC(=S)NC(CC(C)C)NC(=O)/C=C/c1cc(OC)c(OC)c(OC)c1 (stereo not shown) [Example 43, (2E)-N-[3-methyl-1-(3-methylthioureido)butyl]-3-(3,4,5-trimethoxyphenyl) acrylamide] | 1.28 | 0.95 | 1 | 1.03 | 7.62 | 0.93 | 1
COc1cc(/C=C/C(=O)NC(NC(=S)Nc2ccccc2C)C(C)(C)C)cc(OC)c1OC (stereo not shown) [Example 44, (2E)-N-[2,2-dimethyl-1-(3-o-methylphenylthioureido)propyl]-3-(3,4,5-trimethoxyphenyl)acrylamide] | 1.12 | 0.93 | 0.96 | 0.94 | 50.5 | 0.98 | 0.93
COc1cc(/C=C/C(=O)NC(NC(=S)Nc2ccccc2C)C2CC2)cc(OC)c1OC (stereo not shown) [Example 45, (2E)-N-[cyclopropyl-(3-o-methylphenylthioureido)-methyl]-3-(3,4,5-trimethoxyphenyl) acrylamide] | 0.98 | 0.93 | 1.05 | 1.59 | 19.3 | 1.04 | 0.79
Cc1ccccc1NC(=S)NC(CC(C)(C)C)NC(=O)/C=C/c1ccccc1 (stereo not shown) [Example 46, N-[3,3-dimethyl-1-(3-o-methylphenylthioureido)butyl] cinnamamide] | 1.64 | 0.94 | 1.29 | 0.74 | 41 | 1.25 | 0.79
Cc1ccccc1NC(=S)NC(CC(C)C)NC(=O)/C=C/c1ccccc1 (stereo not shown) [Example 47, N-[3-methyl-1-(3-o-methylphenylthioureido)butyl] cinnamamide] | 1.39 | 1.05 | 1.15 | 0.84 | 61.3 | 0.98 | 0.97
Cc1ccccc1NC(=S)NC(NC(=O)/C=C/c1ccccc1)C(C)(C)C (stereo not shown) [Example 48, N-[2,2-dimethyl-1-(3-o-methylphenylthioureido)propyl] cinnamamide] | 1.2 | 1.15 | 1.15 | 0.92 | -0.88 | 0.99 | 0.96
Cc1ccccc1NC(=S)NC(NC(=O)/C=C/c1ccccc1)C1CC1 (stereo not shown) [Example 49, N-[cyclopropyl-(3-o-methylphenylthioureido)-methyl] cinnamamide] | 1.2 | 0.95 | 1.08 | 0.9 | 65.4 | 0.99 | 0.96
COc1ccc(NC(=S)NC(NC(=O)/C=C/c2cc(OC)c(OC)c(OC)c2)C(C)C)cc1 (stereo not shown) [Example 50, (2E)-N-{1-[3-(4-methoxyphenyl)thioureido]-2-methylpropyl}-3-(3,4,5-trimethoxyphenyl) acrylamide] | 1.4 | 0.97 | 1.06 | 1.02 | 28.8 | 0.96 | 1.02
COc1cc(/C=C/C(=O)NC(CC(C)C)NC(=S)NC2CCCCC2)cc(OC)c1OC (stereo not shown) [Example 51, (2E)-N-[1-(3-cyclohexylthioureido)-3-methylbutyl]-3-(3,4,5-trimethoxyphenyl) acrylamide] | 1.27 | 1.09 | 0.96 | 0.73 | 46.2 | 1.38 | 0.94
